Laboratory results taken from patent publication US20220378707A1, “1-(((2S,3S,4S)-3-ETHYL-4-FLUORO-5-OXOPYRROLIDIN-2-YL)METHOXY)-7-METHOXYISOQUINOLINE-6-CARBOXAMIDE COMBINATIONS AND ORAL DOSAGE FORMS” (Pfizer Inc., priority 2019, published 2022).
“Also recorded” adds a separate entry of the source.

Legend:
[1] = tested on: PBMC and HUVEC+LPS (TLR4 ligand); assay: BioMAP LPS system; assay type: cell-based, human; conditions: monocyte-driven Th1 inflammation; for Inhibition of biomarker readouts in the LPS system: concentrations of FIGS. 12-14; for Increased biomarker readouts in the LPS system: tofacitinib 37-1000 nM
Excerpt: (§1) The BioMAP systems consist of human primary cell-based systems designed to model different aspects of the human body in an in vitro format. The 12 systems tested characterized the test compounds across a broad set of systems modeling various human disease states. BioMAP systems were constructed with one or more primary cell types from healthy human donors, with stimuli (such as cytokines or growth factors) added to capture relevant signaling networks that naturally occur in human tissue or pathological conditions. Vascular biology was modeled in both a Th1 (3C system) and a Th2 (4H system) inflammatory environment, as well as in a Th1 inflammatory state specific to arterial smooth muscle cells (CASM3C system). Additional systems recapitulated aspects of the systemic immune response that included monocyte-driven Th1 inflammation (LPS system) or T cell stimulation (SAg system), chronic Th1 inflammation driven by macrophage activation (IMphg system) and the T cell-dependent activation of B cells that occurs in germinal centers (BT system). The BE3C system (Th1) and the BF4T system (Th2) represented airway inflammation of the lung, while the MyoF system modeled myofibroblast-lung tissue remodeling. Lastly, skin biology was addressed in the KF3CT system modeled Th1 cutaneous inflammation and the HDF3CGF system modeled wound healing.
(§2) All cells were from a pool of multiple donors (n=2-6), commercially purchased and handled according to the recommendations of the manufacturers. Human blood derived CD14+ monocytes were differentiated into macrophages in vitro before being added to the IMphg system. Abbreviations were used as follows: human umbilical vein endothelial cells (HUVEC), peripheral blood mononuclear cells (PBMC), human neonatal dermal fibroblasts (HDFn), B cell receptor (BCR), T cell receptor (TCR) and toll-like receptor (TLR). Cell types and stimuli used in each system were as follows:
(§3) 3C system [HUVEC+(IL-1β, TNFα and IFNγ)]; 4H system [HUVEC+(IL-4 and histamine)]; LPS system [PBMC and HUVEC+LPS (TLR4 ligand)]; SAg system [PBMC and HUVEC+T cell receptor (TCR) ligands]; BT system [CD19+B cells and PBMC+(α-IgM and TCR ligands)]; BF4T system [bronchial epithelial cells and HDFn+(TNFα and IL-4)]; BE3C system [bronchial epithelial cells+(IL-1p, TNFα and IFNγ)]; CASM3C system [coronary artery smooth muscle cells+(IL-1p, TNFα and IFNγ)]; HDF3CGF system [HDFn+(IL-1β, TNFα, IFNγ, EGF, bFGF and PDGF-BB)]; KF3CT system [keratinocytes and HDFn+(IL-1β, TNFα and IFNγ)]; MyoF system [differentiated lung myofibroblasts+(TNFα and TGFβ)]; and IMphg system [HUVEC and M1 macrophages+Zymosan (TLR2 ligand)].
(§4) Systems were derived from either single cell types or co-culture systems. Adherent cell types were cultured in 96 or 384-well plates until confluence, followed by the addition of PBMC (SAg and LPS systems). The BT system consisted of CD19+B cells co-cultured with PBMC and stimulated with a BCR activator and low levels of TCR stimulation. Test agents were prepared in DMSO (final concentration <0.1%) and were added 1 hour before stimulation, and remained in culture for 24 hours or as otherwise indicated (48-hrs, MyoF system; 72-hrs, BT system (soluble readouts); 168-hrs, BT system (secreted IgG)). Each plate contained drug controls (e.g., legacy control test agent colchicine at 1.1 μM), negative controls (e.g., non-stimulated conditions) and vehicle controls (e.g., 0.1% DMSO) appropriate for each system. Direct ELISA was used to measure biomarker levels of cell-associated and cell membrane targets. Soluble factors from supernatants were quantified using either HTRF® detection, bead-based multiplex immunoassay or capture ELISA. Overt adverse effects of test agents on cell proliferation and viability (cytotoxicity) were detected by sulforhodamine B (SRB) staining, for adherent cells, and alamarBlue® reduction for cells in suspension. […]

[2] = tested on: human primary cell-based systems; assay: BioMAP panel of 12 systems; conditions: for Number of annotated readouts with activity / Overt cytotoxicity on primary human cell types: 12 tissue and disease models; for Immunomodulatory activities: Decreased Activity / Inflammation-related activities: Decreased Activity: PF-06651600 200-5400 nM
Excerpt: as §1, §2, §3, §4

[3] = PF-06650833 19-500 nM, tofacitinib 37-1000 nM
[4] = BioMAP profile, PF-06650833 19-500 nM, tofacitinib 37-1000 nM
[5] = BioMAP profile, tofacitinib 37-1000 nM

Compound | Inhibition of biomarker readouts in the LPS system ([1]; listed as 1-(((2S,3S,4S)-3-Ethyl-4-fluoro-5-oxopyrrolidin-2-yl)methoxy)-7-methoxyisoquinol) | Inhibition of biomarker readouts in the LPS system ([1]; listed as 1-(((2S,3S,4S)-3-ethyl-4-fluoro-5-oxopyrrolidin-2-yl)methoxy)-7-methoxyisoquinol) | Number of annotated readouts with activity [2, 3] | Overt cytotoxicity on primary human cell types [2, 3] | Immunomodulatory activities: Decreased Activity [2, 4] | Inflammation-related activities: Decreased Activity [2, 4] | Additional activities in the BioMAP systems ([2]; PF-06650833 19-500 nM) | Antiproliferative effect on primary cell types [2, 3] | Increased biomarker readouts in the LPS system [1] | Increased biomarker readouts in the LPS system ([1]; listed as Tofacitinib) | Immunomodulatory activities: Increased Activity [2, 5] | Inflammation-related activities: Increased Activity [2, 5] | Inflammation-related activities: Modulated Activity [2, 5] | Tissue remodeling activities: Increased Activity [2, 5] | Cytostatic effect on B cells, vascular cell types or fibroblasts ([2]; tofacitinib 37-1000 nM)
CC[C@@H]1[C@H](F)C(=O)N[C@@H]1COc1nccc2cc(C(N)=O)c(OC)cc12 [PF-06650833, 1-(((2S,3S,4S)-3-Ethyl-4-fluoro-5-oxopyrrolidin-2-yl)methoxy)-7-methoxyisoquinoline-6-carboxamide] | primarily active across all tested concentrations; also recorded: MCP-1, VCAM-1, E-selectin, IL-8, IL-1a, sTNFa, sPGE2, CD40, CD69, M-CSF, and TF; also recorded: strongly inhibited activation responses | PGE2, TNFα, IL-1α, and MCP1; also recorded: strongly and selectively inhibited monocyte activation responses; also recorded: MCP-1, VCAM-1, CD40, E-selectin, CD69, IL-8, IL-1α, M-CSF, sPGE2, and sTNFα | 14 | no evidence of overt cytotoxicity | decreased CD40, CD69, M-CSF, secreted IL-17F; also recorded: CD40, CD69, M-CSF, *sIL-17F | decreased E-selectin, MCP-1, VCAM-1, IL-6, IL-8, IL-1α, secreted TNFα, secreted PGE2; also recorded: MCP-1, VCAM-1, E-selectin, IL-6, IL-8, IL-1α, *sTNFα, *sPGE2 | modest effects in BT and CASM3C systems and concentration-related decreases in secreted IL-17F and inhibition of secreted TNFα and IL-6 at the higher two concentrations only | no antiproliferative effect | – | – | – | – | – | – | –
C[C@@H]1CCN(C(=O)CC#N)C[C@@H]1N(C)c1ncnc2[nH]ccc12 [tofacitinib, 3-((3R,4R)-4-Methyl-3-(methyl(7H-pyrrolo[2,3-d]pyrimidin-4-yl)amino)piperidin-1-yl)-3-oxopropanenitrile] | – | – | 21 | no evidence of overt cytotoxicity | decreased secreted IgG, CD38, secreted IL-6, CD69, secreted IL-17F; also recorded: *sIL-6, *sIL-17F; also recorded: CD38, CD69, *sIgG, | decreased Eotaxin 3, MCP-1, VCAM-1, I-TAC, MIG, P-selectin; also recorded: MCP-1, Eot3,; also recorded: ITAC, MIG | – | selectively antiproliferative to T cells | increased levels of IL-1α, secreted PGE2 and secreted TNFα; also recorded: stimulated production of IL-1α, sPGE2 and sTNFα | IL-1α, sPEG2, and sTNFα | increased secreted IL-2; also recorded: *sIL-2 | increased IL-1α, secreted PGE2; also recorded: *sPGE2 | modulated secreted TNFα; also recorded: *sTNFα | increased MMP-9 and MMP9 | no cytostatic effect
